Results published in publication PMC8800111 (The Journal of Biological Chemistry, 2021).

What was measured:
Type in all cases: cell-based
[1] = target: proteins of U3A human fibrosarcoma cells (4462 proteins detected) (Homo sapiens, UniProt P62873); conditions: protein GNB1; U3A cells
[2] = target: proteins of U3A human fibrosarcoma cells (4462 proteins detected) (Homo sapiens, UniProt Q9BQP7); conditions: protein MGME1; soluble abundance after heat, U3A cells
[3] = target: proteins of U3A human fibrosarcoma cells (4462 proteins detected) (Homo sapiens, UniProt P49840); conditions: protein GSK3A; U3A cells
[4] = target: proteins of U3A human fibrosarcoma cells (4462 proteins detected) (Homo sapiens, UniProt P14866); conditions: protein HNRNPL; soluble abundance after heat, U3A cells
[5] = target: proteins of U3A human fibrosarcoma cells (4462 proteins detected) (Homo sapiens, UniProt Q14669); conditions: protein TRIP12, U3A cells
[6] = target: proteins of U3A human fibrosarcoma cells (4462 proteins detected) (Homo sapiens, UniProt P35244); conditions: protein RPA3; soluble abundance after heat, U3A cells
[7] = target: proteins of U3A human fibrosarcoma cells (4462 proteins detected) (Homo sapiens, UniProt Q9H5Q4); conditions: protein TFB2M; U3A cells
[8] = target: proteins of U3A human fibrosarcoma cells (4462 proteins detected) (Homo sapiens, UniProt P05121); conditions: protein SERPINE1; U3A cells
[9] = target: proteins of U3A human fibrosarcoma cells (4462 proteins detected) (Homo sapiens, UniProt P30154); conditions: protein PPP2R1B; soluble abundance after heat, U3A cells
[10] = target: proteins of U3A human fibrosarcoma cells (4462 proteins detected) (Homo sapiens, UniProt O94925); conditions: protein GLS; U3A, 10 μM, 2 h
[11] = target: proteins of U3A human fibrosarcoma cells (4462 proteins detected) (Homo sapiens, UniProt Q8NCN4); conditions: protein RNF169, U3A cells
[12] = target: proteins of U3A human fibrosarcoma cells (4462 proteins detected) (Homo sapiens, UniProt Q9H9F9); conditions: protein ACTR5; U3A cells
[13] = target: proteins of U3A human fibrosarcoma cells (4462 proteins detected) (Homo sapiens, UniProt Q16610); conditions: protein ECM1; U3A, 10 μM, 2 h
[14] = target: proteins of U3A human fibrosarcoma cells (4462 proteins detected) (Homo sapiens, UniProt Q9NWH9); conditions: protein SLTM; soluble abundance after heat, U3A cells
[15] = target: proteins of U3A human fibrosarcoma cells (4462 proteins detected) (Homo sapiens, UniProt Q9NQT5); conditions: protein EXOSC3; U3A cells
[16] = target: proteins of U3A human fibrosarcoma cells (4462 proteins detected) (Homo sapiens, UniProt Q9BZZ5); conditions: protein API5; U3A cells
[17] = target: proteins of U3A human fibrosarcoma cells (4462 proteins detected) (Homo sapiens, UniProt Q9NY33); conditions: protein DPP3, U3A cells
[18] = target: proteins of U3A human fibrosarcoma cells (4462 proteins detected) (Homo sapiens, UniProt P05023); conditions: protein ATP1A1; U3A, 10 μM, 2 h
[19] = target: proteins of U3A human fibrosarcoma cells (4462 proteins detected) (Homo sapiens, UniProt Q9NWV8); conditions: protein BABAM1; soluble abundance after heat, U3A cells
[20] = target: proteins of U3A human fibrosarcoma cells (4462 proteins detected) (Homo sapiens, UniProt Q92922); conditions: protein SMARCC1; soluble abundance after heat, U3A cells
[21] = target: proteins of U3A human fibrosarcoma cells (4462 proteins detected) (Homo sapiens, UniProt O95218); conditions: protein ZRANB2, U3A cells
[22] = target: proteins of U3A human fibrosarcoma cells (4462 proteins detected) (Homo sapiens, UniProt Q9NVH2); conditions: protein INTS7; soluble abundance after heat, U3A cells
[23] = target: proteins of U3A human fibrosarcoma cells (4462 proteins detected) (Homo sapiens, UniProt P51659); conditions: protein HSD17B4; U3A cells
[24] = target: proteins of U3A human fibrosarcoma cells (4462 proteins detected) (Homo sapiens, UniProt Q6V1X1); conditions: protein DPP8; U3A cells
[25] = target: proteins of U3A human fibrosarcoma cells (4462 proteins detected) (Homo sapiens, UniProt Q9Y5A9); conditions: protein YTHDF2; U3A cells
[26] = target: proteins of U3A human fibrosarcoma cells (4462 proteins detected) (Homo sapiens, UniProt Q92973); conditions: protein TNPO1; U3A cells
[27] = target: proteins of U3A human fibrosarcoma cells (4462 proteins detected) (Homo sapiens, UniProt O15066); conditions: protein KIF3B; U3A cells
[28] = target: proteins of U3A human fibrosarcoma cells (4462 proteins detected) (Homo sapiens, UniProt P54802); conditions: protein NAGLU, U3A cells
[29] = target: proteins of U3A human fibrosarcoma cells (4462 proteins detected) (Homo sapiens, UniProt P78317); conditions: protein RNF4, U3A cells
[30] = target: proteins of U3A human fibrosarcoma cells (4462 proteins detected) (Homo sapiens, UniProt Q9Y6M5); conditions: protein SLC30A1; U3A cells

Chain of proteins of U3A human fibrosarcoma cells (4462 proteins detected) (Homo sapiens, UniProt P35244) (P35244 whole entry): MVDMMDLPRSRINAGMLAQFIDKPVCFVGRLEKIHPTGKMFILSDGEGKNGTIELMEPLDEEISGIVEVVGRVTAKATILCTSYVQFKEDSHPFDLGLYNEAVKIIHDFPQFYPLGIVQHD
Chain of proteins of U3A human fibrosarcoma cells (4462 proteins detected) (Homo sapiens, UniProt Q9NY33) (Q9NY33 whole entry): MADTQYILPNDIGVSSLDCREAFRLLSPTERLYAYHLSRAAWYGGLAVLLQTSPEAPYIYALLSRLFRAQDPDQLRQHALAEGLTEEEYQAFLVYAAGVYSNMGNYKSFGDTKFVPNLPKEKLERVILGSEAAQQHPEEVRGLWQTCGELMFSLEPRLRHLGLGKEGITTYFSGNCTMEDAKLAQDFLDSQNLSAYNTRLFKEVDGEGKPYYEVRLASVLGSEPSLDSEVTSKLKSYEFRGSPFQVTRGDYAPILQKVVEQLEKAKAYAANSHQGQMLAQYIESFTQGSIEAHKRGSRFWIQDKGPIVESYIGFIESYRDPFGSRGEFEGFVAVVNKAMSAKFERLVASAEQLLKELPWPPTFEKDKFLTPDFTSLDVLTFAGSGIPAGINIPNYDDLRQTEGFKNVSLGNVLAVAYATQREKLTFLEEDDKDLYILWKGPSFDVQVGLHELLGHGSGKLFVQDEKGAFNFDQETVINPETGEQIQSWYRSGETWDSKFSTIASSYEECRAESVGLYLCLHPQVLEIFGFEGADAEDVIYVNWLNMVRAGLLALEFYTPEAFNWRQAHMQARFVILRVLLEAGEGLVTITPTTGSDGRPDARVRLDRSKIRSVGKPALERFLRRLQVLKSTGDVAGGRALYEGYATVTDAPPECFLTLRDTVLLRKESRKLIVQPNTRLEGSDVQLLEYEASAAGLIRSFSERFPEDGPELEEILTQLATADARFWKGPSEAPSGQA
Chain of proteins of U3A human fibrosarcoma cells (4462 proteins detected) (Homo sapiens, UniProt O95218) (O95218 whole entry): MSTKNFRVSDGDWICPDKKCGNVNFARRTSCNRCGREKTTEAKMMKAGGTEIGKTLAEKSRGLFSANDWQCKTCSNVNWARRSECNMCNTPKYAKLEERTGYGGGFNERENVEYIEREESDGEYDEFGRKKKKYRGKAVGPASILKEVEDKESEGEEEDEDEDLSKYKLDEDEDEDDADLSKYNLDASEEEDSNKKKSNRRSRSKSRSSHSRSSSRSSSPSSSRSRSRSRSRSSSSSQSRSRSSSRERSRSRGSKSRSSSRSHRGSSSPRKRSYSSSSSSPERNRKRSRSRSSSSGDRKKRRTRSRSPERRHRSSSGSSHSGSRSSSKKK
Chain of proteins of U3A human fibrosarcoma cells (4462 proteins detected) (Homo sapiens, UniProt Q16610) (Q16610 20-540): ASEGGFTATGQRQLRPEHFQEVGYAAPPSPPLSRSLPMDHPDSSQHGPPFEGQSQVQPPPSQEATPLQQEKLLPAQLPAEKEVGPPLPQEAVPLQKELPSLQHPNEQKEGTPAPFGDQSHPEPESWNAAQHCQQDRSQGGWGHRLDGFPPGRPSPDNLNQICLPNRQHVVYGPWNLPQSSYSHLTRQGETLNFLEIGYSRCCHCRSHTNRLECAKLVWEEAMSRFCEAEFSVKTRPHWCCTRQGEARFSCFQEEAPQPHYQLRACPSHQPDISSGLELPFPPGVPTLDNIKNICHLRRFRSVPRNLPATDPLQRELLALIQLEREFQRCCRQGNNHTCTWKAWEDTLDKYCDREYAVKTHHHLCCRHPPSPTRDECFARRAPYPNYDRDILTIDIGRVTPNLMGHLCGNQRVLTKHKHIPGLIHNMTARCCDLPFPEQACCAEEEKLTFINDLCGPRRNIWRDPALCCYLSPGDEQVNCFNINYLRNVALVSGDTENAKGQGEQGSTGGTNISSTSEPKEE
Chain of proteins of U3A human fibrosarcoma cells (4462 proteins detected) (Homo sapiens, UniProt Q9H5Q4) (Q9H5Q4 20-396): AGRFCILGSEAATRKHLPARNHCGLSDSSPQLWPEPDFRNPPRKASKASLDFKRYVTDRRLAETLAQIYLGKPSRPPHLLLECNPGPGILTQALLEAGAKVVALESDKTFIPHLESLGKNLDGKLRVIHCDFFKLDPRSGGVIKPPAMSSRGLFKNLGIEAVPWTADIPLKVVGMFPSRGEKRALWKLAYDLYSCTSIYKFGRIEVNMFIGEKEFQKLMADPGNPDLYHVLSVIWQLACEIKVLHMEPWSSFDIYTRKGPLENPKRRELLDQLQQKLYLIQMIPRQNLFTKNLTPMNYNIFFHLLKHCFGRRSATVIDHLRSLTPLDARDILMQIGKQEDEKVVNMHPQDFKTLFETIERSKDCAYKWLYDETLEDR
Chain of proteins of U3A human fibrosarcoma cells (4462 proteins detected) (Homo sapiens, UniProt Q6V1X1) (Q6V1X1 whole entry): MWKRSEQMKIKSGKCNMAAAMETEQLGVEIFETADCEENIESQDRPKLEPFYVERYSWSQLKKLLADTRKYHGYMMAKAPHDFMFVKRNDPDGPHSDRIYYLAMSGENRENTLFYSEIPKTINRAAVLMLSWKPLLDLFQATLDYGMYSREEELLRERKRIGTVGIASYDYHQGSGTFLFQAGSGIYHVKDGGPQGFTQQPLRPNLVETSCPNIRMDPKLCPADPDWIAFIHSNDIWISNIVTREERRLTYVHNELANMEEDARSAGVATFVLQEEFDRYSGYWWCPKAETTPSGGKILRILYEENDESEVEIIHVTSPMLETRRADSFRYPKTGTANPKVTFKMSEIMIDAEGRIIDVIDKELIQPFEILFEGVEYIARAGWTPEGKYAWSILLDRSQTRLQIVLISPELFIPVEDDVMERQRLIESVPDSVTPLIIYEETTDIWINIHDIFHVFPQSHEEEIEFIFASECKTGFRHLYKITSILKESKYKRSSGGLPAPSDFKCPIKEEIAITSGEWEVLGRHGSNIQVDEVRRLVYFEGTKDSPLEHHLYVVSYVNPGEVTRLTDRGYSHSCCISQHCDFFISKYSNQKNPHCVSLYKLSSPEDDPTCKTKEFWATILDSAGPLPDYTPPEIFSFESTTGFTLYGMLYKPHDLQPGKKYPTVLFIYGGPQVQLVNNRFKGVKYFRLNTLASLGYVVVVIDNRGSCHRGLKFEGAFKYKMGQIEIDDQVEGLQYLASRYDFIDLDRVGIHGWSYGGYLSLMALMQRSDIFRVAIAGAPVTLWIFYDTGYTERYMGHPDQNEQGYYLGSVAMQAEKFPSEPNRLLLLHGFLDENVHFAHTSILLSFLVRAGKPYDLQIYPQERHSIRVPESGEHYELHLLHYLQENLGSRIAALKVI
Chain of proteins of U3A human fibrosarcoma cells (4462 proteins detected) (Homo sapiens, UniProt Q9NVH2) (Q9NVH2 whole entry): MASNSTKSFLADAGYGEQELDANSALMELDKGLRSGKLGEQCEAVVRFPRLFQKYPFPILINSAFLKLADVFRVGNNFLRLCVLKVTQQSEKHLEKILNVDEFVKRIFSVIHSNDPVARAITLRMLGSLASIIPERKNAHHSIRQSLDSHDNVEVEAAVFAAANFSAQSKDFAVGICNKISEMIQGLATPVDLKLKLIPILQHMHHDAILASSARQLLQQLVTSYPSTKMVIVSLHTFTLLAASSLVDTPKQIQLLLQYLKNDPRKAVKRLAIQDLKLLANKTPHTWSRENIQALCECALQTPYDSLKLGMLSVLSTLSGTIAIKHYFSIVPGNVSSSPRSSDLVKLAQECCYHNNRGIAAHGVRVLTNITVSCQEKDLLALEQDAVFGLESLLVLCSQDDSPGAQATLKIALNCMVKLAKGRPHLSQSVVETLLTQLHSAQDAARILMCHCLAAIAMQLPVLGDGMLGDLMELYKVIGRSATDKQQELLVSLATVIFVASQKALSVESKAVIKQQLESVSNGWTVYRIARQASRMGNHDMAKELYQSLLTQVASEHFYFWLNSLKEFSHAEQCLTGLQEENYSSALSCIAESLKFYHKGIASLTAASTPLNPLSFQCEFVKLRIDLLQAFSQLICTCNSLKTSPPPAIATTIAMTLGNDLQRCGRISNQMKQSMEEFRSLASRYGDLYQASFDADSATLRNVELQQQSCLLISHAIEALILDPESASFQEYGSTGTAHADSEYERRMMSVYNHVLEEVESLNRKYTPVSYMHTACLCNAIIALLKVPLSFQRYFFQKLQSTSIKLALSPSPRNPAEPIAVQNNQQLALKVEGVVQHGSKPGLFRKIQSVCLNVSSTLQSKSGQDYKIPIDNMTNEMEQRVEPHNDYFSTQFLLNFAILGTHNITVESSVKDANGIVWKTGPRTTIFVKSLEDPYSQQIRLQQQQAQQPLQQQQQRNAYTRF
Chain of proteins of U3A human fibrosarcoma cells (4462 proteins detected) (Homo sapiens, UniProt P51659) (P51659 whole entry): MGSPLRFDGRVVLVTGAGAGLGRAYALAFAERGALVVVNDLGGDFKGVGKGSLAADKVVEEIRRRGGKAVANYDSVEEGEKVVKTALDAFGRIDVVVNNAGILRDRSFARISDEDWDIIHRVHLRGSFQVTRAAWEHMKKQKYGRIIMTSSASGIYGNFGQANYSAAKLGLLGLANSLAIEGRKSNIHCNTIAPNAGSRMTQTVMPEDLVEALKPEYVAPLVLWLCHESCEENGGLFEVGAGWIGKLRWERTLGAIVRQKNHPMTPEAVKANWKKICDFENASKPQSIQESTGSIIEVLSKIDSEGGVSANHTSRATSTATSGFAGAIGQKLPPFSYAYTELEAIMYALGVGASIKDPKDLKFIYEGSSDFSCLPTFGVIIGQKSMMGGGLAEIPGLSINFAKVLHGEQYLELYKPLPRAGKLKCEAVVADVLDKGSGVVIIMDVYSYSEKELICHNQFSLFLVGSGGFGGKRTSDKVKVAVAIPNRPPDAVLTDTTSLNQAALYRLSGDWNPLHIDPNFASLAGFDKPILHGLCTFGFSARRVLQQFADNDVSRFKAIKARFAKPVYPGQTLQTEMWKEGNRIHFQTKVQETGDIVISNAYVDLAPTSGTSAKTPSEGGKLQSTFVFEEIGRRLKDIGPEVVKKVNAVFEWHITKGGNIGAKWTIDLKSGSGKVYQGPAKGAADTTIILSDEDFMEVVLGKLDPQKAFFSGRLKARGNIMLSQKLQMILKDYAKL
Chain of proteins of U3A human fibrosarcoma cells (4462 proteins detected) (Homo sapiens, UniProt P78317) (P78317 whole entry): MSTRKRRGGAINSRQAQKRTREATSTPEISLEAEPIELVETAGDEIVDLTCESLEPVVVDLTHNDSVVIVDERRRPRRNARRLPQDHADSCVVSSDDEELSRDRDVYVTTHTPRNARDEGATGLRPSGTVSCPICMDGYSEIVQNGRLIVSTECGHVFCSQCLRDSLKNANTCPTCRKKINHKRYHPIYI

## CCc1nc(N)nc(N)c1-c1ccc(Cl)cc1 [pyrimethamine]
[1]
  Log2 (PYR/DMSO): 0.22
[2]
  Log2 (PYR/DMSO): 0.14
[3]
  Log2 (PYR/DMSO): 0.16
[4]
  Log2 (PYR/DMSO): 0.15
[5]
  Log2 (PYR/DMSO): -0.04
[6]
  Log2 (PYR/DMSO): 0.13
[7]
  Log2 (PYR/DMSO): 0.18
[8]
  Log2 (PYR/DMSO): 0.19
[9]
  Log2 (PYR/DMSO): 0.15
[10]
  Log2 (PYR/DMSO), GLS: 0.24
[11]
  Log2 (PYR/DMSO): -0.03
[12]
  Log2 (PYR/DMSO): 0.20
[13]
  Log2 (PYR/DMSO), ECM1: -0.14
[14]
  Log2 (PYR/DMSO): 0.15
[15]
  Log2 (PYR/DMSO): 0.18
[16]
  Log2 (PYR/DMSO): 0.24
[17]
  Log2 (PYR/DMSO): -0.04
[18]
  Log2 (PYR/DMSO), ATP1A1: 0.37
[19]
  Log2 (PYR/DMSO): 0.15
[20]
  Log2 (PYR/DMSO): 0.15
[21]
  Log2 (PYR/DMSO): -0.04
[22]
  Log2 (PYR/DMSO): 0.15
[23]
  Log2 (PYR/DMSO): 0.17
[24]
  Log2 (PYR/DMSO): 0.16
[25]
  Log2 (PYR/DMSO): 0.16
[26]
  Log2 (PYR/DMSO): 0.22
[27]
  Log2 (PYR/DMSO): 0.16
[28]
  Log2 (PYR/DMSO): -0.03
[29]
  Log2 (PYR/DMSO): -0.04
[30]
  Log2 (PYR/DMSO): 0.16
